Data as given in patent US12491187B2, “Use of MCT1 inhibitors to enhance insulin sensitivity” (H. LEE MOFFIT CANCER CENTER AND RESEARCH INSTITUTE, INC., priority 2022, dated 2025).

Assays:
Format in all cases: cell-based, murine
[1] = test system: differentiated 3T3-L1 (WT) cells; assay: Immunoblotting of protein expression in differentiated adipocytes
Method: Immunoblotting: For the collection of membrane bound proteins (i.e., MCT1), cells were lysed and the membrane fraction of protein was isolated as previously described (Sadler, J B A, et al. Preparation of a total membrane fraction from 3T3-L1 adipocytes (Cold Spring Harb. Protoc. 2016, 2016, pdb-prot083675). Briefly, cells were lysed with ice cold HES buffer (250 mM sucrose, 20 mM HEPES, 1 mM EDTA, pH7.4) containing a cocktail of protease and phosphatase inhibitors (Roche Diagnostic) and centrifuged for 5 min (500 g at 4° C.) to pellet out nuclei. The remaining supernatant (containing cytosolic and membrane bound proteins) was collected. For all other immunoblotting experiments, RIPA lysis buffer containing protease and phosphatase inhibitors was used, and protein was isolated via centrifugation at 17,000 g for 10 min at 4° C. For all samples, protein concentration of the lysates was measured using the BCA Protein Assay Kit (Pierce Biotechnologies). Diluted lysates were added to Laemmli sample buffer and denatured at 95° C. for 5 min. After sample preparation, proteins were resolved via SDS-polyacrylamide gel electrophoresis (4-12%) using NuPAGE 4-12% Bis-Tris gels (Invitrogen), and transferred to nitrocellulose membranes. Blots were placed in blocking buffer (LI-COR Biosciences) and incubated overnight at 4° C. with primary antibodies at the recommended dilution. Blots were washed 3 times (5 minutes per wash) in TBST (20 mM Tris, pH 7.6, 140 mM NaCl, and 0.1% Tween-20), and then incubated with the appropriate IRDye-conjugated secondary antibody (LI-COR Biosciences) diluted in blocking buffer and incubated at room temperature for an hr. […] Bands were quantified using Image Studio™ (LI-COR Biosciences).

[2] = test system: differentiated 3T3-L1 cells; assay: NADP+ + NADPH bioavailability (NADP+/NADPH-Glo); conditions: 1 μM
Method: NADP++NADPH Bioavailability: 3T3-L1 cells were seeded, differentiated and treated with or without AZD3965 (1 μM) for up to 72 hr in clear 96 well plates (Corning®). Following treatment, the NADP+/NADPH-Glo™ (Promega®) kit was used to measure the total NADP++NADPH concentration within each sample according to the manufacturer's instructions. In the presence of either NADP+ or NADPH, an enzyme ‘Reductase’ reduces a pro-luciferin reductase substrate to form luciferin which emits a luminescent signal directly proportional to the quantity of NADP+ and NADPH. Luminescence was read on a spectrophotometer (FlexStation 3; Molecular Devices).

3T3-L1-shMCT1 cells = assay: Glucose uptake (Glucose Uptake-Glo) in MCT1 knockdown cells
Method: (§1) Cell Line Development: Lenti plasmid vectors containing shRNA targeting MCT1 or a shScramble sequence were purchased from Genocopia. Lentiviral particles were produced using HEK293T cells and a third-generation packaging system, MISSION Lentiviral Packaging Mix, as per manufacturer's (Sigma-Aldrich) recommendations. To generate shMCT1 cells, 3T3-L1 cells were seeded and transduced with optimized titers of freshly harvested lentivirus. 12 hr after transduction, medium was changed, and cells were allowed to recover for 24 h before being placed under antibiotic selection (2 μg/mL puromycin [Clontech]) for 3-6 days. Cells surviving antibiotic selection were harvested for both reverse transcription quantitative chain polymerase reaction (RT-qPCR) and immunoblotting analyses.
(§2) Glucose Uptake: 3T3-L1 cells were seeded and differentiated in clear bottom 96-well plates (Corning®). After differentiation, cells were treated with or without […] AZD3965 for 24 hr, 48 hr or 72 hr as illustrated in FIG. 7 (schematic outline of experimental procedure). The cells were incubated in serum free media the night before performing the assay. […] Glucose Uptake was measured using the Glucose Uptake-Glo™ Assay (Promega®) according to the manufacturer's protocol. The data generated were normalized by dividing the relative luminescence units (RLU) measured in insulin stimulated wells by vehicle treated controls. […]

[3] = test system: differentiated 3T3-L1 adipocytes; assay: Hyperplasia (intracellular triglycerides, Triglyceride-Glo)
Method: Hyperplasia (Intracellular Triglycerides): 3T3-L1 cells were seeded and differentiated in clear bottom 96-well plates (Corning®). After differentiation, cells were treated with or without 1 μM AZD3965 for 24 hr, 48 hr or 72 hr. After compound incubation, media was changed to normal growth media with or without 100 nM insulin and cultured for an additional 72 hrs. Upon completion of the second incubation period, adipocytes were lysed and subjected to the Triglyceride-Glo™ Assay (Promega®) according to the manufacturer's instructions. The luminescent signal produced is proportional to the amount of triglycerides detected within the sample. Luminescence was read on a spectrophotometer (FlexStation 3; Molecular Devices).

[4] = test system: differentiated 3T3-L1 cells; assay: Lipolysis (intracellular glycerol, Glycerol-Glo); conditions: 1 μM, all time points measured (24, 48, 72 hr)
Method: Lipolysis (Intracellular Glycerol): 3T3-L1 cells were seeded, differentiated and treated with or without AZD3965 (1 μM) for up to 72 hr in clear 96 well plates (Corning®). After media removal and washing cells with PBS, the Glycerol-Glo™ (Promega®) assay kit was used to assess changes in lipolysis through the quantification of intracellular glycerol according to the manufacturer's instructions. A luminescent signal is produced that is proportional to the amount of glycerol within the sample Luminescence was read on a spectrophotometer (FlexStation 3; Molecular Devices).

3T3-L1-shScramble cells = assay: Glucose uptake (Glucose Uptake-Glo) in shScramble control cells; conditions: 1 μM for 72 hr, 175 nM insulin
Method: as §1, §2

## Cc1[nH]nc(C(F)(F)F)c1Cc1sc2c(c1C(=O)N1C[C@](C)(O)CO1)c(=O)n(C)c(=O)n2C(C)C [AZD3965, 5-[[(4S)-4-hydroxy-4-methyl-2-isoxazolidinyl]carbonyl]-3-methyl-1-(1-methylethyl)-6-[[5-methyl-3-(trifluoromethyl)-1H-pyrazol-4-yl]methyl]-thieno[2,3-d]pyrimidine-2,4 (1H, 3H)-dione]
[1]; 1 μM, up to 72 hr
  total CDK1 protein expression: no change
[1]; 1 μM, up to 72 hr, normalized to total CDK1 and α-tubulin
  CDK1 phosphorylation at Tyr15: significant decrease
[1]; mature adipocytes, 24-72 hr treatment
  HSL protein expression: significant decrease
[1]; mature adipocytes, 48 hr treatment
  FABP4 protein expression: significantly increased
[1]; mature adipocytes, by 72 hr treatment
  FABP4 protein expression: this increase was attenuated
[1]; mature adipocytes, up to 72 hr treatment
  PPARγ protein expression: no changes
[2]; 24 hr, 48 hr and 72 hr
  concentration of NADP+/NADPH cofactor species: subtle, yet significant decrease
[2]; up to 72 hr
  decrease in intracellular concentrations of NADP+ (H): less than 15%
3T3-L1-shMCT1 cells; 1 μM for 72 hr, 175 nM insulin
  insulin-stimulated glucose uptake: do not respond to insulin as robustly as WT 3T3-L1 cells or show any increase
3T3-L1-shMCT1 cells; 1 μM, up to 72 hr
  basal, non-insulin stimulated glucose uptake: no significant changes
[3]; pretreated 1 μM 24 hr and 72 hr, then cultured 72 hr with 100 nM insulin
  total triglyceride content: did not reach statistical significance
[3]; pretreated 1 μM 48 hr, then cultured 72 hr with 100 nM insulin
  total triglyceride content: significantly more triglycerides
[3]; pretreated 1 μM up to 72 hr, then cultured 72 hr without insulin
  total triglyceride content: significantly more triglycerides
[4]
  intracellular glycerol levels (lipolysis): significantly increased
3T3-L1-shScramble cells
  insulin-stimulated glucose uptake: augmented
